Measured values reported in patent publication US11441029B1, “Packaging films, and methods of preparation thereof” (King Abdulaziz University, priority 2022, dated 2022).

System: gram-positive and gram-negative bacteria
Experiment: Antimicrobial activity of films, bacteria not specified at the place
Format: cell-based
Experimental: Active cultures were prepared by inoculating freshly cultured bacteria or pure colony (24 hours (h)) into lysogeny broth (LB) broth, then incubated in a shaker for 24 h at 30° C. with 200 revolutions per minute (rpm). The optical density (OD) for each culture was set to 0.05, equivalent to 1-2×10^5 colony forming units/millilitre (CFU/mL) by adding LB broth. […] Thereafter, re-suspension was carried out for each sample using 4.6 mL of 0.85 wt. % sodium chloride. Serial dilution was conducted, and 100 microlitre (μL) for each dilution was transferred to LB agar plates. Then, those agar plates were allowed to undergo incubation for 24 h at 30° C. Gentamicin was used as a positive control, and pure PBS film were used as negative control for the microbial culture. […] The whole antimicrobial process was conducted in triplicate to obtain average values. The microbial population was calculated as log CFU per mL sample, and the actual number in each dilution was determined for dishes containing 30-300 colonies using Equation 1 as below: [formula] where C refers to total counts of bacteria in all retained dishes; V refers to volume used for sample dilution; n1 refers to number of retained dishes in first dilution; n2 refers to number of retained dishes in second dilution; D refers to dilution factor of first dilution.

[O-]n1ccccc1=S.[O-]n1ccccc1=S.[Zn+2] [SAN, zinc, bis[1-(hydroxy-.kappa.O)-2(1H)-pyridinethionato-.kappa.S2]-,(T-4)-]
antimicrobial activity (general statement): exhibited antimicrobial effects
